{"source": "patent US9393316B2", "about": "“Cancer targeting peptides for enhancing anti-cancer drug delivery and therapeutic efficiencies” (priority 2014, dated 2016)", "key": {"[1]": {"biological_target": "T1, alpha-enolase (ENO1) (Homo sapiens, UniProt P06733)", "T1 construct": "endogenous in cells; host or cells: HCT116", "T1 sequence (P06733 whole entry)": "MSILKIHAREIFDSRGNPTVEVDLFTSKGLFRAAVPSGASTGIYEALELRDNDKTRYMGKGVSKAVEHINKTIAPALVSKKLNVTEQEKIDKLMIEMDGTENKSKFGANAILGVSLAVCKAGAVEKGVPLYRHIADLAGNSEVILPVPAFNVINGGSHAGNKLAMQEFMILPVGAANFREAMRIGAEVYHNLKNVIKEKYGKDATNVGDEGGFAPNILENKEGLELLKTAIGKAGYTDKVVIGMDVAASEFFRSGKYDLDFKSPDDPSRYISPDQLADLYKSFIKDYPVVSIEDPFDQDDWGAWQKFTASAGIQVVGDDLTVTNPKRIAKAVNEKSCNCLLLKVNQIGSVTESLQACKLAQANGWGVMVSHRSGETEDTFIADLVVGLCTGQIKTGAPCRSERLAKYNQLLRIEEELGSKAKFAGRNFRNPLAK", "experiment": "Flow cytometry binding of HCT74 phage after ENO1 knockdown or overexpression", "source_text": "To further confirm alpha-enolase was the target proteins of the pHCT74 peptide, correlation between the binding activity of HCT74 phage and ENO1 expression was examined. We established stable cell lines expressing shRNAs targeting ENO1 gene (FIG. 4E) and tested the binding activity of HCT74 phage by flow cytometry. The binding activity of HCT74 phage was reduced after ENO1 gene knockdown (FIG. 4F). Instead, after transient overexpression of ENO1 gene, the binding activity of HCT74 phage was increased (FIG. 4G). […] In addition, HCT74 phage specific binding to the alpha enolase protein was also confirmed by direct ELISA assay (FIG. 4H)."}, "[2]": {"biological_target": "recombinant α-enolase protein (Homo sapiens, UniProt P06733)", "sequence (P06733 whole entry)": "as above", "experiment": "Direct ELISA of HCT74 phage on recombinant α-enolase protein", "assay_type": "binding", "settings": "plate coated with 2 ug/mL α-enolase", "description": "(A) Schematic diagram of the experimental design. (B) The binding characteristics of biotinylated pHCT74 peptide to HCT116 cells were evaluated by flow cytometry. (C) Affinity cross-linking of biotinylated pHCT74 peptide to the surface proteins of HCT116 cells, cross-linked proteins were cleaved from streptavidin dynabeads using 2-mercaptoethanol. […] (D) The peptide sequence (SEQ ID NO: 22) of target bands were deduced by tandem mass spectrometry. (E) Stable knockdown of ENO1 gene by introducing specific shRNA (ENO1-A, B, C and D shRNA) into HCT116 cells through infection with viral vectors. (F) The binding activity of HCT74 phage was reduced after α-enolase gene knockdown (G) The binding activity of HCT74 phage was enhanced when α-enolase was overexpressed. (H) Binding affinity of the HCT74 phage to recombinant α-enolase protein. The 96-well plate was pre-coated with 2 ug/mL α-enolase protein and incubated with increasing concentrations of HCT74 phage and then with HRP conjugated anti-M13 antibody. Data are presented as mean±standard deviation.\nTo further confirm alpha-enolase was the target proteins of the pHCT74 peptide, correlation between the binding activity of HCT74 phage and ENO1 expression was examined. We established stable cell lines expressing shRNAs targeting ENO1 gene (FIG. 4E) and tested the binding activity of HCT74 phage by flow cytometry. […]"}, "[3]": {"test_system": "HUVAC", "experiment": "Cellular ELISA of phage clones", "assay_type": "binding, human", "description": "(§1) The selected phages were further identified by ELISA screening. 1×10^4 cells were seeded into each well of 96-well ELISA plates (Falcon, Calif., USA) overnight and were fixed with 2% paraformaldehyde or methanol/acetone (1:1) for 10 min at RT. The plates were washed twice with PBS and were blocked with 1% BSA in PBS (w/v) for 30 min at RT. Then individual phage clones were added and incubated for 1 hr at RT. Following washing three times with PBS, the plates were incubated with horseradish peroxidase (HRP)-conjugated mouse anti-M13 phage antibody (GE Healthcare) at 1:2000 dilution for 1 hr at RT. The plates were washed three times with PBS again, and were subsequently incubated with the peroxidase substrate o-phenylenediamine dihydrochloride (OPD; Sigma) plus H2O2. The reaction was terminated by 3 N HCl, and the absorbance was measured using microplate reader (Model 680, BioRad) at 490 nm. To evaluate the binding activities of the three selected phage clones to various human cancer cell lines, cellular ELISA was performed to detect sixteen types of human cancer cell lines, including A498, HTB-10, B16-F10, SKOV3, PC-3, U2OS, 1112SK, […], SAS, H460, MIA Paca-2, HCT116, HUVAC, CL1-5, Mahlavu, and MDA-MB-231."}, "[4]": {"test_system": "SAS", "experiment": "Cellular ELISA of phage clones", "assay_type": "binding, human", "description": "as §1"}, "[5]": {"test_system": "PC-3", "experiment": "Cellular ELISA of phage clones", "assay_type": "binding, human", "description": "as §1"}, "[6]": {"test_system": "H184", "experiment": "Cellular ELISA of phage clones", "assay_type": "binding, human", "description": "as §1"}, "[7]": {"test_system": "HCT116 cells", "experiment": "ELISA screening of phage clones on HCT116 cells (cellular ELISA)", "assay_type": "binding, human", "settings": "HCT116, cell line panel", "description": "The selected phages were further identified by ELISA screening. 1×10^4 cells were seeded into each well of 96-well ELISA plates (Falcon, Calif., USA) overnight and were fixed with 2% paraformaldehyde or methanol/acetone (1:1) for 10 min at RT. The plates were washed twice with PBS and were blocked with 1% BSA in PBS (w/v) for 30 min at RT. Then individual phage clones were added and incubated for 1 hr at RT. Following washing three times with PBS, the plates were incubated with horseradish peroxidase (HRP)-conjugated mouse anti-M13 phage antibody (GE Healthcare) at 1:2000 dilution for 1 hr at RT. The plates were washed three times with PBS again, and were subsequently incubated with the peroxidase substrate o-phenylenediamine dihydrochloride (OPD; Sigma) plus H2O2. The reaction was terminated by 3 N HCl, and the absorbance was measured using microplate reader (Model 680, BioRad) at 490 nm."}, "[8]": {"test_system": "peripheral blood mononuclear cells (PBMC)", "experiment": "Flow cytometry binding of phage clones to normal cells", "settings": "human PBMC", "description": "Cells were grown to 70-80% confluence and were harvested with 10 mM EDTA in PBS. Peripheral blood mononuclear cells were prepared by using Ficoll-Paque Plus density gradient separation. After washing and suspending the cells with FACS buffer (PBS containing 1% fetal bovine serum), the cells were incubated for 1 hr at 4° C. with 5×10^9, 1×10^9 cfu individual phage clones or control phage, respectively. After washing twice with FACS buffer, cells were incubated with mouse anti-M13 monoclonal antibody (GE Healthcare) at 1:2000 dilution for 1 hr followed by 30 min with phycoerythrin (PE)-conjugated goat anti-mouse secondary antibody (Jackson ImmunoResearch) at 1:250 dilution at 4° C. The emission fluorescence signals were measured using FACSCantoll (Becton Dickinson) and were analyzed by FlowJo software."}, "[9]": {"test_system": "B16-F10", "experiment": "Cellular ELISA of phage clones", "assay_type": "binding, mouse", "description": "as §1"}, "[10]": {"test_system": "HCT116 xenografts", "experiment": "In vivo tumor homing, phage titer in tumor and organs", "design": "species or system mice", "settings": "2×10^11 pfu i.v., PBS perfusion; vs brain, lungs, heart", "description": "Non-obese diabetic-severe combined immunodeficiency (NOD/SCID) mice were injected subcutaneously (s.c.) into the dorsolateral flank with 5×10^6 HCT116 cells. When the xenograft tumor size reached 300±50 mm^3, the mice were injected intravascularly (i.v.) with 2×10^11 pfu of the targeting phage or control phage M13KO7. Seven min after injection, the mice were sacrificed and perfused through the heart with 50 mL of PBS to wash unbound phages. After perfusion, xenograft tumor and mouse organs were taken out, washed three times with cold PBS, and cut into pans, with some of them homogenized. The phages bound to each tissue sample were recovered by log-phase Escherichia coli ER2738 culture and were titered on LB/IPTG/X-Gal agar plates. In peptide competitive inhibition experiments, 2×10^9 pfu of phage was co-injected with 100 μg of corresponding peptide or an unrelated control peptide.\nTo investigate the targeting ability of the selected phage clones in vivo, mice bearing HCT116 xenografts (300 mm^3) were injected with 2×10^11 pfu of either the selected phages or control phage through the tail vein. Phages were circulated and then were perfused with PBS buffer to wash out non-specific binders in circulation. After perfusion, we recovered and determined the […] of phage in tumor masses and normal organs."}}}
{"sequence": "SSMDIVLRAPLM [HCT74]", "values": [{"measurement": "binding activity after ENO1 gene knockdown", "setting": "[1]; HCT116 cells with shRNAs targeting ENO1", "result": "reduced"}, {"measurement": "binding activity after transient overexpression of ENO1 gene", "setting": "[1]; flow cytometry", "result": "increased"}, {"measurement": "specific binding to alpha enolase protein", "setting": "[2]", "result": "confirmed"}, {"measurement": "binding by cellular ELISA", "setting": "[3]", "result": "highly specific binding"}, {"measurement": "binding by cellular ELISA", "setting": "[4]", "result": "highly specific binding"}, {"measurement": "binding by cellular ELISA", "setting": "[5]", "result": "highly specific binding"}, {"measurement": "binding by cellular ELISA", "setting": "[6]", "result": "highly specific binding"}, {"measurement": "binding by cellular ELISA", "setting": "[7]", "result": "highly specific binding"}, {"measurement": "binding activity to PBMC (normal cells) by FACS", "setting": "[8]", "result": "not to normal cells"}, {"measurement": "binding by cellular ELISA", "setting": "[9]", "result": "highly specific binding"}, {"measurement": "phage accumulation in tumor mass vs normal organs (phage titer)", "setting": "[10]", "result": "significantly accumulated in the tumor mass"}]}
